Measurements as given in US3978055A, “Arylamino pyrimidinic derivatives” (priority 1973, dated 1976).

Columns and labels:
volume of urine emitted = assay: Augmentation of urinary elimination (diuretic properties); format: in vivo; conditions: po; mouse, 25mg/kg/p.o., 6 hours; read-out: Percentage augmentation of urinary elimination
Procedure: The derivatives of formula I, administered by oral means to the mouse, simultaneously with a volume of 1ml of an isotonic solution of sodium chloride per 25g of the corporeal weight of the mouse, are capable of provoking an augmentation of the volume of urine emitted by reference to control animals, the volume being measured for 6 hours following administration.
The following Table VII indicates, by way of example the percentage augmentation of urinary elimination resulting from the administration of 25mg/kg/p.o. of different derivatives of formula I.

[1] = test system: painful stretchings caused by phenylbenzoquinone; assay: Analgesic test with phenylbenzoquinone (painful stretchings); format: in vivo; conditions: Mus musculus, po; for ED50: read-out: 105 DE (DE 50)
[2] = Lethal doses / percentage mortality; format: in vivo; conditions: in vivo, mouse; for LD50: po, Table IX, read-out: DE 50 (second column; DL 50) (converted)
Description: As a result of a comparison between the pharmacologically active doses mentioned above, and the lethal doses listed in the following table XIV, the difference between the doses is sufficiently great to permit the utilisation of the derivatives of formula I in therapeutics.

Shay ulcers = assay: Gastric ulcers provoked by tying of the pylorus (Shay ulcers); format: in vivo; conditions: intraduodenal; rat, 50mg/kg/i.d.; read-out: Percentage reduction of shay ulcers
Procedure: The derivatives of formula I, administered by oral means, reduce the extent of gastric ulcers provoked in a rat by tying of the pylorus (Shay ulcers)
Table IV indicated, by way of example, the results obtained by the administration of 50mg/kg/i.d. of different derivatives of formula I.

[3] = test system: isolated heart of guinea-pig; assay: Augmentation of flow of coronary vessels of isolated heart (vasodilatatory); conditions: Cavia porcellus; 1 μg/ml; read-out: Percentage augmentation of flow of isolated heart of guinea-pig
Procedure: The derivatives of formula I are capable of augmenting the flow of the coronary vessels of this isolated heart of a guinea - pig, when said derivatives are added in the perfusion liquid of said organ.
The percentage augmentation of the flow of the isolated heart of the guinea - pig by adding different derivatives of formula I to the perfusion liquid are given by way of example in the following Table V.

[4] = test system: number of explorations in the escape enclosure; assay: Number of explorations in the escape enclosure (sedative properties); format: in vivo, mouse; conditions: po; mouse, escape enclosure, 100mg/kg/p.o.; read-out: Percentage diminution of number of explorations
[5] = test system: local oedema caused by sub-plantar injection of carraghenine; assay: Sub-plantar oedema caused by carraghenine (antiinflammatory); format: in vivo, rat; conditions: rat, read-out: Percentage reduction of subplantar oedema; for inhibition in vivo at 100 mg/kg: 100 mg/kg/PO
Description: These properties are shown by a diminution of the local oedema caused by the sub-plantar injection of a phlogogenic agent, such as carraghenine, in the rat following the oral administration of derivatives of formula I.

[6] = read-out: Percentage of diminution of the number of painful stretchings

Row | Compound | change in vivo at 25 mg/kg (volume of urine emitted) | mortality ([2]; 2000 mg/kg, 2 000 mg/kg/PO) | inhibition in vivo at 50 mg/kg (Shay ulcers) | inhibition in vivo at 100 mg/kg [5] | also measured
1 | Cc1cc(Nc2ccc(OCCN3CCOCC3)cc2)nc(-c2cccc(Cl)c2)n1 [730 695] | 43% | 0% |  |  | inhibition in vivo at 100 mg/kg [1, 6]: 85%
2 | Cc1cc(Nc2ccc(C(=O)N3CCOCC3)cc2)nc(-c2ccc3c(c2)OCO3)n1 [72 621] |  | ~30% | 40% |  | 
3 | CCOC(=O)c1ccc(Nc2cc(C)nc(-c3cccc(C(F)(F)F)c3)n2)cc1 [72 505] |  | 0% |  |  | activation at 1 µg/mL [3]: 50%
4 | Cc1cc(Nc2ccc(C(=O)N3CCOCC3)cc2)nc(-c2cccc(F)c2)n1 [72 754] | 50% | 0% | 40% |  | 
5 | COc1cc(-c2nc(C)cc(Nc3ccccc3C(=O)OCC3COC(C)(C)O3)n2)cc(OC)c1OC (stereo not drawn) [71 510] |  | 0% | 35% | 40% | inhibition in vivo at 100 mg/kg [4]: 40%
6 | Cc1cc(Nc2ccccc2C(N)=O)nc(-c2cccc(F)c2)n1 [72 783] | 80% | 0% |  |  | 
7 | Cc1cc(Nc2ccc(OCCN(C)C)cc2)nc(-c2ccccc2)n1 [730 136] |  | 0% |  |  | inhibition in vivo at 100 mg/kg [1, 6]: 46%
8 | Cc1cc(Nc2ccccc2C(=O)OCC(O)CO)nc(-c2ccc3c(c2)OCO3)n1 (stereo not drawn) [72 686] |  | 0% |  |  | inhibition in vivo at 130 mg/kg [1, 6]: 50%; inhibition in vivo at 25 mg/kg ([5]; 25 mg/kg/PO): 35%
9 | Cc1cc(Nc2ccc(OCCN3CCCC3)cc2)nc(-c2cccc(C(F)(F)F)c2)n1 [730 243] |  |  |  | 50% | mortality ([2]; 1000 mg/kg, 1 000 mg/kg/PO): 0%
10 | COc1cc(-c2nc(C)cc(Nc3ccc(C(=O)N4CCCC4)cc3)n2)cc(OC)c1OC [72 271, 2-(3',4',5'-trimethoxyphenyl)-4-(parapyrrolidinocarbonylphenylamino) -6-methyl pyrimidino] |  | 0% |  | 35% | inhibition in vivo at 100 mg/kg [4]: 40%
11 | Cc1cc(Nc2ccc(OCCN3CCOCC3)cc2)nc(-c2ccc(Cl)cc2)n1 [730 732] |  | 0% |  |  | ED50 [1]: 23 mg/kg; LD50 [2]: > 2000 mg/kg
12 | COc1cc(-c2nc(C)cc(Nc3ccc(C(N)=O)cc3)n2)cc(OC)c1OC [72 417] | 65% | 0% | 40% |  | 
13 | COc1cc(-c2nc(C)cc(Nc3ccc(C(=O)N4CCCCC4)cc3)n2)cc(OC)c1OC [72 317] |  | 0% | 40% | 35% | 
14 | Cc1cc(Nc2ccccc2C(=O)OCC2COC(C)(C)O2)nc(-c2cccc(C(F)(F)F)c2)n1 (stereo not drawn) [72 495, N-[2-(3'trifluoromethylphenyl) -6-methyl-4-pyrimidyl](2",2" -dimethyldioxolan-4"-yl) methyl anthranilate] | 115% | 0% |  |  | 
15 | Cc1cc(Nc2ccc(C(N)=O)cc2)nc(-c2cccc(F)c2)n1 [72 773] | 110% | ~20% | 40% | 40% | inhibition in vivo at 100 mg/kg [4]: 45%
16 | Cc1cc(Nc2ccc(CC(=O)O)cc2)nc(-c2cccc(F)c2)n1 [730 234] |  |  |  | 35% | inhibition in vivo at 100 mg/kg [1, 6]: 55%; mortality ([2]; 2 400 mg/kg/PO): ~50%
17 | Cc1cc(Nc2ccc(OCCN3CCCCC3)cc2)nc(-c2cccc(F)c2)n1 [730 231] |  |  | 50% |  | ED50 [1]: 27 mg/kg; mortality ([2]; 975 mg/kg/PO): ~50%; LD50 [2]: 975 mg/kg
18 | Cc1cc(Nc2ccc(C(=O)N3CCN(c4ccccc4)CC3)cc2)nc(-c2ccc(Cl)cc2)n1 [72 260] |  | 0% | 35% |  | activation at 1 µg/mL [3]: 70%
19 | Cc1cc(Nc2ccc(C(N)=O)cc2)nc(-c2cccc(C(F)(F)F)c2)n1 [72 432] | 200% | 0% | 35% | 45% | inhibition in vivo at 100 mg/kg [4]: 35%
20 | Cc1cc(Nc2ccccc2C(N)=O)nc(-c2ccc(Cl)cc2)n1 [72 257] |  | 0% | 50% |  | activation at 1 µg/mL [3]: 80%
